Assay results: patent US20050148069A1, “IGF-1 instructs multipotent adult CNS neural stem cells to an oligodendroglial lineage” (priority 2003, published 2005)

Assays:
Noggin = experiment: quantitative real time PCR, Noggin expression; format: cell-based, rat; details: 500 ng/ml IGF-I, up to 48 hours, normalized to GAPDH
Source text: If IGF-I induction of oligodendrocyte differentiation involves the inhibition of BMP signaling, a change in the expression of BMP antagonists after IGF-I treatment might be observed. In addition to extracellular antagonists of BMP signaling, such as Noggin, intracellular proteins that can interfere with downstream BMP receptor signaling, called inhibitory Smads (Smad6, 7), have also been identified (Christian and Nakayama, 1999). Therefore, we performed Q-PCR analyses of cultures treated with IGF-I after various time points (up to 48 hours) and examined the relative fold change (normalized to an internal control; see Methods) of Noggin, Smad6, 7 (FIG. 6, A-C). Expression of Noggin, Smad6, 7 increased by at least 6-, 5-, and 2-fold, respectively, after IGF-I treatment (p<0.05, t-test). There may be an unexplained downregulation of Smad6 at the 48-h time point.
Total RNA was isolated from cell cultures using RNeasy columns (Qiagen). For real-time quantitative PCR, reactions were carried out essentially as described (Zhao et al., 2001). The relative amount of the tested message was normalized to the level of the internal control message, GAPDH. […] Primer sequences are available upon request.

[1] = tested on: multipotent neural progenitor cells derived from the whole brain of P10 ICR mice; experiment: differentiation of whole brain-derived multipotent neural progenitor cells; format: cell-based, mouse; details: IGF-I treatment, primary cultures (unpublished data)
Protocol: The neural progenitor cells isolated from the hippocampus of female Fischer 344 used in this study have been characterized previously (Gage et al., 1995; Palmer et al., 1997). The whole brain-derived neural stem cells from PIO ICR mice were isolated and cultured according to the methods as described, with slight modifications. Cells were cultured as previously described (Gage et al., 1995; Ray et al., 1993). Cells between passages 10 and 20 were used for in vitro differentiation analyses. To induce differentiation, cells were plated into 4-well chamber slides at a density of 55,000-75,000 cells per well and were allowed to proliferate in N2-supplemented (Invitrogen) DMEM:F12 (Omega Scientific) medium containing 20 ng/ml FGF-2 (PeproTech, Inc.) for 24 hours. FGF-2 was then withdrawn and cells were subsequently treated with differentiation media. […] For IGF-induction experiments, cells were trypsinized, washed with 1× PBS, and plated into insulin-free N2 medium. Either human recombinant IGF-I or IGF-II (500 ng/ml; R&D Systems) or insulin (500 ng/ml; Sigma) was added for 4 days, except when indicated otherwise. In some cultures, BrdU (2.5 μM, Sigma) was added to label dividing cells, and Q-VD-OPh (2 μM, Enzyme Systems Products) was added to prevent apoptosis.

[2] = tested on: adult hippocampus-derived neural progenitor cells; experiment: proliferation by BrdU incorporation; format: cell-based, rat; details: 500 ng/ml IGF-I
Protocol: We next determined whether proliferation of progenitors might contribute to the observed increase in oligodendrocyte differentiation. Bromodeoxyuridine (BrdU) (2.5 μM) was added to parallel cultures for 12 hours at times 0-, 12-, 24-, and 36-h after plating, followed by fixation and quantification of total cell numbers and BrdU+ cells. We counted the progenitor cells (evidenced by a lack of RIP staining) that were labeled with BrdU at each time point. For cells grown in the absence of IGF-I, we observed a progressive decrease in the percentage of cells that were proliferating (BrdU+) during the 48-h experiments (FIG. 3B). […] This initial decrease in proliferation is most likely due to FGF-2 mitogen withdrawal. […]
Cells were fixed with 4% paraformaldehyde, followed by immunocytochemical staining as described (Palmer et al., 1999). […] Quantification of cell phenotypes was with StereoInvestigator (MicroBrightfield Inc.); for each marker, 500-1000 cells were sampled systematically from standardized fields at 40×magnification. For quantification of live/dead cells, images were taken of cultures live-stained with propidum iodide (1 μg/ml; Molecular Probes) and Hoescht 33342 (1 μg/ml; Sigma) at 10×magnification, and cells were counted using Image-Pro (Media Cybernetics). […]

With “IGF-I: human recombinant IGF-I (R&D Systems), growth factor polypeptide” the “relative fold change of Noggin expression” value (Noggin) was “at least 6 fold”, the differentiation into oligodendrocytes [1] was “exhibited a preferential differentiation into oligodendrocytes” and the “percentage of RIP− cells that incorporated BrdU” value ([2]; 12-h BrdU periods up to 48 h) was “decreasing trend in the first three time periods”. The “RIP+ cells positive for BrdU” value ([2]; after 24 hours) was “significant increase in RIP+ cells positive for BrdU”.
